How the values were obtained:
Format in all cases: cell-based
[1] = biological target: TRPM8 (Homo sapiens, UniProt Q7Z2W7)
[2] = biological target: TRPV4 (Homo sapiens, UniProt Q9HBA0)
[3] = biological target: TRPV1 (Homo sapiens, UniProt Q8NER1)
Chain of TRPV1 (Q8NER1 whole entry): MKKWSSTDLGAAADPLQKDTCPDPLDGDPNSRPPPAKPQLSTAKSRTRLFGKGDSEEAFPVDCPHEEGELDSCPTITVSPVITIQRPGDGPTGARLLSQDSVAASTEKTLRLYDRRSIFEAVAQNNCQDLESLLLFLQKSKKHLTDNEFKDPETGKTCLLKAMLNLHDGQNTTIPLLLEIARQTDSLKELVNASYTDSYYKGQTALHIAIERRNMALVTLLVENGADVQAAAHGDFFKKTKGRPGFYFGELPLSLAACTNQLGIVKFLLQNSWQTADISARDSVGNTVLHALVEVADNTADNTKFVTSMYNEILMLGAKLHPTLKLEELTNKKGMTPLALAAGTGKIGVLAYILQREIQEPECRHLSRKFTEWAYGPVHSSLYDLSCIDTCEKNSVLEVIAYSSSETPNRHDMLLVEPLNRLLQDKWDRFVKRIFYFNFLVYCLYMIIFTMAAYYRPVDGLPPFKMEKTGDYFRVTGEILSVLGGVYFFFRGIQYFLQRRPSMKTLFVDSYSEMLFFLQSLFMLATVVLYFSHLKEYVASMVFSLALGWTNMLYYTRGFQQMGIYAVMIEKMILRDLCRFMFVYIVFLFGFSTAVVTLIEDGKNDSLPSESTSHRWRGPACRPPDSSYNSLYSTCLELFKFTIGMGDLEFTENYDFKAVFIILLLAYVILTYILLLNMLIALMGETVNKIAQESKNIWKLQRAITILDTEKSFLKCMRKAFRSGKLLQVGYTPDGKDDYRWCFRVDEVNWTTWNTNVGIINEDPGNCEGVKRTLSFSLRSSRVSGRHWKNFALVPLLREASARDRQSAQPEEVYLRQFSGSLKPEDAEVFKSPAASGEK

Chain of TRPM8 (Q7Z2W7 whole entry): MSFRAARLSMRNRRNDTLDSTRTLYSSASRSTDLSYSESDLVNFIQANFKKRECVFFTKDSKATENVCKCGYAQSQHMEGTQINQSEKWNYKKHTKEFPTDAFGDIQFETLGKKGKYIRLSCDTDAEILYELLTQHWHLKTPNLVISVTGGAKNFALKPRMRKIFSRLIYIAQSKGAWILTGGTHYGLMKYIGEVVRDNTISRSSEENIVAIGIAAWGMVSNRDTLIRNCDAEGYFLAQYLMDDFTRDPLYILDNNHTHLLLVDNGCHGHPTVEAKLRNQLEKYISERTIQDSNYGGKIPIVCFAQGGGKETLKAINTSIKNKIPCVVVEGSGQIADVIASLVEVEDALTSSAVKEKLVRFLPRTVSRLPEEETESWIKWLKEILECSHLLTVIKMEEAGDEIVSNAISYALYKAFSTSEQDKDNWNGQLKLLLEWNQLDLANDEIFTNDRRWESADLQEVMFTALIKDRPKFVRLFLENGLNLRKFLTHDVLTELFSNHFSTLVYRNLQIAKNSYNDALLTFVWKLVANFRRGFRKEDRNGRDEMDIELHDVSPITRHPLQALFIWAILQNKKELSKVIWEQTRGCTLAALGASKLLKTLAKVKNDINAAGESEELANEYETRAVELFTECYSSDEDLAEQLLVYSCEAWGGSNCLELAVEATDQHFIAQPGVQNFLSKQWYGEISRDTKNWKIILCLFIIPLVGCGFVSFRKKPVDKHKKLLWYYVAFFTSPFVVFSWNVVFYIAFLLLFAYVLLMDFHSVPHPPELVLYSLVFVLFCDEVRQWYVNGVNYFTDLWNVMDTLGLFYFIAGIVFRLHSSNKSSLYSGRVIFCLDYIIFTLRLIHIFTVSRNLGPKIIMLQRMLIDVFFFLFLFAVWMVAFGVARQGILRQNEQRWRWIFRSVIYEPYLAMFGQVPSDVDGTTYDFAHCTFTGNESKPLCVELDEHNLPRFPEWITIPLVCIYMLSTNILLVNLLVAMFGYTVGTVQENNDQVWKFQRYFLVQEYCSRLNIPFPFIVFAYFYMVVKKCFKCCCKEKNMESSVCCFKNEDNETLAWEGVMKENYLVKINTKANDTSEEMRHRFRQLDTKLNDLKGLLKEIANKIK
Chain of TRPV4 (Q9HBA0 whole entry): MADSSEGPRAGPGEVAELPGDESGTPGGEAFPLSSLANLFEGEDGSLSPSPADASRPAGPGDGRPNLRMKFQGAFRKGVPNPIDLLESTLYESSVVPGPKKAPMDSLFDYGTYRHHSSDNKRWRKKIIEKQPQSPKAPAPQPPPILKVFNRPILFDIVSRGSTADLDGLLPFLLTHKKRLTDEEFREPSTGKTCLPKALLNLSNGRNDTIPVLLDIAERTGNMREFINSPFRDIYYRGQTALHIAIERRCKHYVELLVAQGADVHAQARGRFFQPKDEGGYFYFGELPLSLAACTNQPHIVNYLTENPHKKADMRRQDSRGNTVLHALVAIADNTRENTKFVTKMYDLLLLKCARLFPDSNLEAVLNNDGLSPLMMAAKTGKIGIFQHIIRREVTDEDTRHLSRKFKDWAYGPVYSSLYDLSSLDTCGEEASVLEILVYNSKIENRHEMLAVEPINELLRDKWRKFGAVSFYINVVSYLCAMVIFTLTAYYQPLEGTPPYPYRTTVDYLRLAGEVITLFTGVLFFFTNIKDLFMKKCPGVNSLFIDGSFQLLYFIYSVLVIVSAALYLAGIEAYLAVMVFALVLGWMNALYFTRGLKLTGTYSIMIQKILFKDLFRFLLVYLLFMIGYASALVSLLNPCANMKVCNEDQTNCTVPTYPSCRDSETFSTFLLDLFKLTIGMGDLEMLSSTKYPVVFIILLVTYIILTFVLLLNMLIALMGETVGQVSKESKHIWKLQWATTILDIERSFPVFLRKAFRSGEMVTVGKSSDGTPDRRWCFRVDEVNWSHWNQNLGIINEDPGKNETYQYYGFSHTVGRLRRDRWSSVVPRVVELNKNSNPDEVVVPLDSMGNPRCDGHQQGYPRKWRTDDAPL

| Substance | IC50 [1] [µM] | IC50 [2] [µM] | IC50 [3] [µM] |
| --- | --- | --- | --- |
| Onydecalin B [compound 2] | 18.5 |  |  |
| Onydecalin D [compound 4] | 61.6 |  |  |
| onydecalin A [compound 1] |  | ~45.9 | ~81.6 |
